Usually IC50 stands for the concentration that inhibits the measured activity by half. Read a low IC50 as higher potency.

In one assay the target is ErbB2 (HER2) (Homo sapiens (Human), UniProt P04626). The experiment in a line: Kinase inhibition assay (TR-FRET, LanthaScreen), ErbB2 (HER2). In kind it is biochemical. The settings on record: ATP 1 mM. The procedure:
1) The compound is dissolved in DMSO to prepare a 10 mM solution, and was diluted to 100 micoM with water. […] Kinase activity was determined with time-resolved Fret (TR-FRET) assay (LanthaScreen® kinase activity assay, from InVitrogen).
2) The assay is performed in a Black 384-well plate (from Corning). The kinase and the compound was incubated for […] at room temperature. ATP (1 mM) and fluorescein-poly GT were added, and the reaction was incubated for […]. Detection agent SA-XL665 (from Cisbio Assay) and TK Ab-Cryptate detection antibody (from InVitrogen) were added to stop the reaction.
3) The 384-well plate was sealed and incubated for 1 hour. The fluorescence was then measured at […] (Cryptate) and 665 nM (XL655) wavelength.
4) Each concentration of compound was done in triplicate, and vehicle (without compound) and a positive control were used.
Data process: the ratio of fluorescence is calculated (value of fluorescence 665 nM over […]). The results are calculated from: signal=compound fluorescence ratio−vehicle ratio, and the IC50 was calculated based on inhibition curve.

The test system of assay [1] is Human breast cancer BT474 cells. Put plainly: Cell proliferation inhibition assay for BT474 (CCK-8). Type of assay: cell-based. As to conditions: BT-474, 72 h, text calls it EC50. The procedure:
1) Human breast cancer BT474 cells were plated 10000 cells/well in a 96-well clear tissue culture plate. The cells were incubated for 24 h at 37° C. to allow adherence.
2) A serials of concentrations of each compound (ranging from 30 uM to 0.16 nM, 5-fold dilution) in 96-well plate, and incubated for 72 h. Each concentration was tested in triplicate. During the cell proliferation assay, BT474 cells were cultured in the complete cell culture solution (low-glucose DMEM containing 5% FBS, 50 ug/ml gentamicin).
3) The culture medium was removed via aspiration, and the cell viability was detected by CCK-8 cell proliferation kit.
4) The EC50 was calculated based on the proliferation curve.

ErbB2 (HER2), sequence (P04626 23-1255): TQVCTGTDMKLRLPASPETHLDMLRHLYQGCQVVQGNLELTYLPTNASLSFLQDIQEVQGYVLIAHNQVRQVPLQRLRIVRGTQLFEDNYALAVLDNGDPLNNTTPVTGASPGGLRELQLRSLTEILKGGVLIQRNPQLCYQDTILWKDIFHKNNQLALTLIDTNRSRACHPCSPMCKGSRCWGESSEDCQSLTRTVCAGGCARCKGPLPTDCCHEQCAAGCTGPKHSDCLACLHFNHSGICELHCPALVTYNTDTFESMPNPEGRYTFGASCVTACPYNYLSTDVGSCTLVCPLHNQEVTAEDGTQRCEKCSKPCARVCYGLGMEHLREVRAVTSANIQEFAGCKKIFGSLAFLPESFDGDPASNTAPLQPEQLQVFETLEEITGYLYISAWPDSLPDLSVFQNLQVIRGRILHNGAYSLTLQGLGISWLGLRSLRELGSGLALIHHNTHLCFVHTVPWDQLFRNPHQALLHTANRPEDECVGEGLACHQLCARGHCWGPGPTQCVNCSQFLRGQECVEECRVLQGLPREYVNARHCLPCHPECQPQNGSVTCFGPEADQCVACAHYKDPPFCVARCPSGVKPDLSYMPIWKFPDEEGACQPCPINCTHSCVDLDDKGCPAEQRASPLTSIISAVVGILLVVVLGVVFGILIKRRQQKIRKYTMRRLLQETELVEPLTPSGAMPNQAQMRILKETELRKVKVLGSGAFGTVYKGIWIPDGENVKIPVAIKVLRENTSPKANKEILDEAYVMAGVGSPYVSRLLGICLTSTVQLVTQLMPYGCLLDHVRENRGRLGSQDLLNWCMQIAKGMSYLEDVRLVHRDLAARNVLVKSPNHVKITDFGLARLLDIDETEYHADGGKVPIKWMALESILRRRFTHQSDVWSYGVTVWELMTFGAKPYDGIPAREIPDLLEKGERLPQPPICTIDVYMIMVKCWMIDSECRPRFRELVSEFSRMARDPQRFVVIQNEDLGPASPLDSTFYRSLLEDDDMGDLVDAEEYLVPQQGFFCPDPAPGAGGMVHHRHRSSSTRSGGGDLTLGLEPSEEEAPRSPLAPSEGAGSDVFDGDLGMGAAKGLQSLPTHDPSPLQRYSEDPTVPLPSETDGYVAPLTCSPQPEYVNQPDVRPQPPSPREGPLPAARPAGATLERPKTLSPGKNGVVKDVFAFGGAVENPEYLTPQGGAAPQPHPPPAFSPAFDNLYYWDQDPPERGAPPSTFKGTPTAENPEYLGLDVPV

As to `CO[C@@H]1CO[C@@H]2[C@H]1OC[C@@H]2Oc1cc2ncnc(Nc3ccc(F)c(Cl)c3)c2cc1NC(=O)/C=C/CN(C)C` [Example 1, (E)-N-(7-((3R,3aS,6S,6aS)-hexahydro-3-methoxyfuro[3,2-b]furan-6-yloxy)-4-(3-chloro-4-fluorophenylamino)quinazolin-6-yl)-4-(dimethylamino)but-2-enamide], the IC50 was determined as 25 nM at ErbB2 (HER2) and 35.9 nM in assay [1].

Consider `CN(C)C/C=C/C(=O)Nc1cc2c(Nc3ccc(F)c(Cl)c3)ncnc2cc1OCC1C2COCC21` (stereo not shown) [Example 2, (E)-N-(7-((3-oxa-bicyclo[3.1.0]hexan-6-yl)methoxy)-4-(3-chloro-4-fluorophenylamino)quinazolin-6-yl)-4-(dimethylamino)but-2-enamide], for which the IC50 on ErbB2 (HER2) turned out to be 6 nM; in assay [1], 19.1 nM.

Regarding `CN(C)C/C=C/C(=O)Nc1cc2c(Nc3ccc(F)c(Cl)c3)ncnc2cc1OC[C@]12COC[C@H]1C2` [Example 3, (E)-N-(7-(((1S,5S)-3-oxa-bicyclo[3.1.0]hexan-1-yl)methoxy)-4-(3-chloro-4-fluorophenylamino)quinazolin-6-yl)-4-(dimethylamino)but-2-enamide], the IC50 against ErbB2 (HER2) was 23 nM; in assay [1], 31.8 nM.

Consider `CN(C)C/C=C/C(=O)Nc1cc2c(Nc3ccc(F)c(Cl)c3)ncnc2cc1OC[C@@]12COC[C@@H]1C2` [Example 4, (E)-N-(7-(((1R,5R)-3-oxa-bicyclo[3.1.0]hexan-1-yl)methoxy)-4-(3-chloro-4-fluorophenylamino)quinazolin-6-yl)-4-(dimethylamino)but-2-enamide], for which the IC50 turned out to be 22 nM at ErbB2 (HER2) and 25.6 nM in assay [1].

In the case of `CN(C)C/C=C/C(=O)Nc1cc2c(Nc3ccc(F)c(Cl)c3)ncnc2cc1OCC12COCC1C2` (stereo not shown) [Example 5, (E)-N-(7-((3-oxa-bicyclo[3.1.0]hexan-1-yl)methoxy)-4-(3-chloro-4-fluorophenylamino)quinazolin-6-yl)-4-(dimethylamino)but-2-enamide], the values for the IC50 (at ErbB2 (HER2); in assay [1]) were 91 nM and 157 nM, respectively.

The values above are taken from patent US9187459B2, “Quinazoline-7-ether compounds and methods of use” (NewGen Therapeutics, Inc., priority 2011, dated 2015).
